The IC50 is the concentration needed to halve the response being measured. Higher therefore signals weaker potency. The inhibition is the percentage by which the read-out fell short of the control. Read a high inhibition as a response far below the control.

The values below come from patent publication US8809550B2, “Androgen receptor antagonists and uses thereof” (priority 2009, dated 2014).

For experiment [1], the system named is 22RV1 cells. Kind of experiment: Cell viability assay, 22RV1 cells. Type of experiment: cell-based, human. The settings on record: Homo sapiens, 22Rv1, 48 h, read-out: Inhibition of cell viability, 22RV1 % inhibition at 2.5 uM. Here is the method: (§1) LNCaP and 22RV1 cells were maintained in RPMI 1640 medium supplemented with 10% fetal bovine serum (FBS), 100 U/mL penicillin, 100 μg/mL streptomycin, and 0.25 μg/mL amphotericin B, splitting cells when they reached 80-90% confluence. In order to test compounds, 10,000 cells/well were plated in 96 cell culture plates using 100 ul/well plating medium, cultured overnight at 37° C. in a cell culture incubator. After carefully remove plating medium, 80 ul/well of pre-warmed assay medium was added, followed by adding 10 ul/well test compounds or bicalutamide (final concentration from 20 uM to 0.1 uM), incubated at 37° C. for 30 minutes, then adding 10 ul/well freshly prepared Methyltrienolone (R1881, AR agonist) (final concentration 1 ng/ml) to each well, incubate at 37° C. for 48-hour. At the end of incubation, 20 μl MTT (2.5 mg/ml in PBS) was added to each well, and the cells were further incubated for 2 h at 37 C to allow a complete reaction between the dye and the enzyme mitochondrial dehydrogenase in the viable cells. After removal of the residual dye and medium, 100 μl dimethylsulfoxide was added to each well, and the absorbance at 570 nm was measured with an microplate reader. The fold induction over background by 1 nM R1881 in the absence of test compounds is standardized as 100% and experimental result is expressed as percentage of inhibition by testing compounds at 2.5 micromolar (uM).

The subject of experiment [2] is Prostate-specific Antigen (PSA) production in LNCaP cells. Kind of experiment: PSA assay: inhibition of PSA production in LNCaP cells (ELISA). Type of experiment: cell-based. As to conditions: Homo sapiens, 72 h, R1881 1 ng/ml, three days, seven point assay. Here is the method:
(§2) PSA Assay (Inhibition Test of the Compound of the Present Invention on Prostate-Specific Antigen (PSA) Production in Various Prostate Cancer Cells)
(§3) Androgen dependent LNCaP and 22RV1 cells were purchased from the American Type Culture Collection (ATCC, Manassas, Va.). These cells were grown in RPMI 1640 medium supplemented with 10% fetal bovine serum (FBS), 100 U/mL penicillin, 100 μg/mL streptomycin, and 0.25 μg/mL amphotericin B. The cells were maintained at 37° C. and 5% CO2. LNCaP cells between passage 20 and 35, and 22RV1 cells between passage 30 and 50 were used for experiments. LNCaP is a hormone sensitive cell line, while 22RV1 is a hormone refractory prostate cancer cell line, which derived from a primary prostate tumor. This cell line was isolated from a xenograft (CWR22R-2152) that was serially propagated in mice after castration-induced regression and relapse of the parental, androgen-dependent CWR xenograft. For the PSA assay, human prostate cancer cells LNCaP or 22RV1 were seeded in a 96-well plate at a concentration of 5000 cells/100 μl/well. On the following day, Methyltrienolone (R1881, AR agonist) (final concentration 1 ng/ml), test compounds or bicalutamide (Casodex®, AstraZeneca) (final concentration 0.005 to 20 μM) were added. Three days after the addition, the concentration of PSA in the supernatant of the culture solution was measured by ELISA. ELISAs for human PSA in culture medium were performed using the ultra-sensitive assay procedure and reagents in the Active™ PSA assay kit (Diagnostic Systems Laboratories Inc., Webster, Tex.). Culture medium and standards (200 μl/well) were incubated in antibody-coated plates for 2 h at room temperature on a Titer plate shaker at 500-600 rpm. Wells were then washed five times. The HRP conjugate was diluted 1:20 with assay buffer, and 100 μl was added to all wells. The plates were incubated for 30 min at room temperature on the shaker and washed as before, and 100 μl TMB (3,3′,5,5′-tetramethylbenzidine, 0.4 g/l) was added. The plates were incubated for 10 min on the shaker, and the reaction was terminated with 100 μl stop solution. The plates were read using a plate reader at 450 nm with a 650 nm reference filter. PSA levels were normalized for differences in growth of LNCaP or 22RV1 cells following various treatments as determined by the MTS assay. IC50 of PSA was calculated based on a seven point assay (concentrations of tested compound) and expressed as micromolar (uM). Results on 22RV1 cells are shown as percent inhibition at 2 micromolar (uM). ND means not determined
For orientation: ELISA stands for enzyme-linked immunosorbent assay.

Experiment [3] concerns LNCaP cells. The experiment is described as follows: Cell viability assay, LNCaP cells. Type of experiment: cell-based. As to conditions: Homo sapiens, LNCaP, 48 h, read-out: Inhibition of cell viability, LNCaP % inhibition at 2.5 uM. Here is the method: as §1
The subject of experiment [4] is Prostate-specific Antigen (PSA) production in 22RV1 cells. Kind of experiment: PSA assay: inhibition of PSA production in 22RV1 cells (ELISA). Type of experiment: cell-based. The settings on record: Homo sapiens, 72 h, R1881 1 ng/ml, three days. Here is the method: as §2
as §3, with “Results on 22RV1 cells are shown as percent inhibition at 2 micromolar (uM).” left out

For experiment [5], the system named is C57BL/6 mice. The experiment is described as follows: C57BL/6 mouse hair growth model. Type of experiment: in vivo. The source says: C57BL/6 Mouse Hair Growth Model
Six-to 8-wk-old male C57BL/6 mice in the telogen stage of the hair cycle, weighing 15-20 g, were purchased and housed in community cages under standard conditions. The growth phase of the hair cycle (anagen) was induced in the back skin of mice with all follicles in the resting phase of the hair cycle (telogen; as judged from their homogeneously pink skin color) by being shaved on the lower back using an electric shaver under mild anesthesia. Only mice in the telogen phase (pink skin) were used in the studies. Twenty microliters of test article at two concentrations in propylene glycol/ethanol (30:70, v/v) or the vehicle control was topically applied to the shaved lower back of the mice to cover an area of approximately 1 cm^2 (20 uL/cm^2). Five mice were used in each group. The mice were treated with the compound by topical application twice daily (BID) for 4 weeks. Local irritation was recorded daily before each application, and hair growth scores were recorded twice per week. The scoring system for mouse hair growth was 0 to 4: 0=no hair growth, pink skin color; 1=skin color in shaved area changes from pink to gray without visible hair growth, indicating the onset of anagen; 2=skin color in shaved area is black with tiny hairs; 3=short black hair in shaved area; and 4=hair in shaved area is almost close to surrounding area. […]

Turning to `CNC(=O)c1ccc(N2C(=S)N(c3ccc(C#N)c(C(F)(F)F)c3F)C(=O)C2(C)C)cc1F` [Example 12, 4-[3-(4-Cyano-2-fluoro-3-trifluoromethyl-phenyl)-5,5-dimethyl-4-oxo-2-thioxo-imidazolidin-1-yl]-2-fluoro-N-methyl-benzamide], the cytotoxicity at 2.5 µM in experiment [1] worked out at 61%; in experiment [3] it was 86%. In experiment [2], this compound gave a concentration for half-maximal inhibition (IC50) of 0.28 µM. The compound further gave an inhibition at 2 µM in experiment [4] of 71%. In experiment [5] (topical BID for 4 weeks, 0.2% and 1% in 30% propylene glycol and 70% ethanol, FIG. 1), the hair growth stimulation result was “stimulated hair growth in dose dependent patterns”. In addition, the “in vivo activity for promoting hair growth compared to RU-58841” value in experiment [5] (topical, compared to reference androgen receptor antagonist RU-58841) is “better in vivo activity for promoting hair growth”.
